Measurements taken from ChEMBL document CHEMBL2073801, “Chlorpyrifos oxon interacts with the mammalian multidrug resistance protein, P-glycoprotein” (J Toxicol Environ Health, 1996).
“Also recorded” adds a separate entry of the source.

Assays:
[1] = target: ATP-dependent translocase ABCB1 (Homo sapiens, UniProt P08183); test: TP_TRANSPORTER: ATP hydrolysis in MDR1-expressing Sf9 cells; assay type: functional
[2] = target: Multidrug resistance protein 1a (Rattus norvegicus) (UniProt Q6PSM0); test: TP_TRANSPORTER: Immunohistochemisty in vivo, stomach of Fischer 344 rat; assay type: functional, organism-based
Sequence of Multidrug resistance protein 1a (Rattus norvegicus) (Q6PSM0 as listed by the source): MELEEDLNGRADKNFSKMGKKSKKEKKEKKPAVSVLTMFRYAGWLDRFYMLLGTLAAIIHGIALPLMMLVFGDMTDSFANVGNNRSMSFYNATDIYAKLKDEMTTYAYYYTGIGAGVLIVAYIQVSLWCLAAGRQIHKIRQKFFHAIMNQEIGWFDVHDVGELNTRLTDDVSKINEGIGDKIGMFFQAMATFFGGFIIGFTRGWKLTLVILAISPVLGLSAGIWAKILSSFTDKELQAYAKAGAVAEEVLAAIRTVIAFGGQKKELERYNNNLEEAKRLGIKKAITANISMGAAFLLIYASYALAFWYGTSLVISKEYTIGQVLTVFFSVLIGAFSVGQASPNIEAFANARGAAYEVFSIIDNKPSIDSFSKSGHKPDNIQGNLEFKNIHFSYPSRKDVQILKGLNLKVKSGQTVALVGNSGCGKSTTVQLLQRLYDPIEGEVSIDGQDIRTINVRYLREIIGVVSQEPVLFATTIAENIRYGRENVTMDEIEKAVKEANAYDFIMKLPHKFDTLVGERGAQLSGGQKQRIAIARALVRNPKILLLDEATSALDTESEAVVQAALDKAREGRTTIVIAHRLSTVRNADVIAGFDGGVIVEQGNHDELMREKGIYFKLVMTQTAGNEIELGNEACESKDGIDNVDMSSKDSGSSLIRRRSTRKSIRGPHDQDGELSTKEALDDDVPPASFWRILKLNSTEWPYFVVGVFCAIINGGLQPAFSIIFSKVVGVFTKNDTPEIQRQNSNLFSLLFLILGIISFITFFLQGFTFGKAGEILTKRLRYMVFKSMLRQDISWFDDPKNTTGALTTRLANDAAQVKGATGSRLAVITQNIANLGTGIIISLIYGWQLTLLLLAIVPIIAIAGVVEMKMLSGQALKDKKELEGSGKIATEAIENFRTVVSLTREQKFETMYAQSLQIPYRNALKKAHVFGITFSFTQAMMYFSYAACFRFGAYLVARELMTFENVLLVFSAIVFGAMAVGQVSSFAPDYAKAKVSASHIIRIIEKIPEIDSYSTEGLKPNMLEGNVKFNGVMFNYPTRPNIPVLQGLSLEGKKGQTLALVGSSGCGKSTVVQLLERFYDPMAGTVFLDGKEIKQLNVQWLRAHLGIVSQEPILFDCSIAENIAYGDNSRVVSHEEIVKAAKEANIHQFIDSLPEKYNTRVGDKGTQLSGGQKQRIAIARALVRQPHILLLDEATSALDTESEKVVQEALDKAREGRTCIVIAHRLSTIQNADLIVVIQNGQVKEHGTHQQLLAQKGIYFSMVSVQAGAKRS

[3] = target: Multidrug resistance protein 1a (Rattus norvegicus) (UniProt Q6PSM0); test: TP_TRANSPORTER: Immunohistochemisty in vivo, jejunum of Fischer 344 rat; assay type: functional, organism-based
[4] = target: Multidrug resistance protein 1a (Rattus norvegicus) (UniProt Q6PSM0); test: TP_TRANSPORTER: Immunohistochemisty in vivo, kidney of Fischer 344 rat; assay type: functional, organism-based
[5] = target: Multidrug resistance protein 1a (Rattus norvegicus) (UniProt Q6PSM0); test: TP_TRANSPORTER: Immunohistochemisty in vivo, liver of Fischer 344 rat; assay type: functional, organism-based
[6] = target: Multidrug resistance protein 1a (Rattus norvegicus) (UniProt Q6PSM0); test: TP_TRANSPORTER: Immunohistochemisty in vivo, adrenals of Fischer 344 rat; assay type: functional, organism-based; details: Adrenal tissue

Sequence of ATP-dependent translocase ABCB1 (P08183 whole entry): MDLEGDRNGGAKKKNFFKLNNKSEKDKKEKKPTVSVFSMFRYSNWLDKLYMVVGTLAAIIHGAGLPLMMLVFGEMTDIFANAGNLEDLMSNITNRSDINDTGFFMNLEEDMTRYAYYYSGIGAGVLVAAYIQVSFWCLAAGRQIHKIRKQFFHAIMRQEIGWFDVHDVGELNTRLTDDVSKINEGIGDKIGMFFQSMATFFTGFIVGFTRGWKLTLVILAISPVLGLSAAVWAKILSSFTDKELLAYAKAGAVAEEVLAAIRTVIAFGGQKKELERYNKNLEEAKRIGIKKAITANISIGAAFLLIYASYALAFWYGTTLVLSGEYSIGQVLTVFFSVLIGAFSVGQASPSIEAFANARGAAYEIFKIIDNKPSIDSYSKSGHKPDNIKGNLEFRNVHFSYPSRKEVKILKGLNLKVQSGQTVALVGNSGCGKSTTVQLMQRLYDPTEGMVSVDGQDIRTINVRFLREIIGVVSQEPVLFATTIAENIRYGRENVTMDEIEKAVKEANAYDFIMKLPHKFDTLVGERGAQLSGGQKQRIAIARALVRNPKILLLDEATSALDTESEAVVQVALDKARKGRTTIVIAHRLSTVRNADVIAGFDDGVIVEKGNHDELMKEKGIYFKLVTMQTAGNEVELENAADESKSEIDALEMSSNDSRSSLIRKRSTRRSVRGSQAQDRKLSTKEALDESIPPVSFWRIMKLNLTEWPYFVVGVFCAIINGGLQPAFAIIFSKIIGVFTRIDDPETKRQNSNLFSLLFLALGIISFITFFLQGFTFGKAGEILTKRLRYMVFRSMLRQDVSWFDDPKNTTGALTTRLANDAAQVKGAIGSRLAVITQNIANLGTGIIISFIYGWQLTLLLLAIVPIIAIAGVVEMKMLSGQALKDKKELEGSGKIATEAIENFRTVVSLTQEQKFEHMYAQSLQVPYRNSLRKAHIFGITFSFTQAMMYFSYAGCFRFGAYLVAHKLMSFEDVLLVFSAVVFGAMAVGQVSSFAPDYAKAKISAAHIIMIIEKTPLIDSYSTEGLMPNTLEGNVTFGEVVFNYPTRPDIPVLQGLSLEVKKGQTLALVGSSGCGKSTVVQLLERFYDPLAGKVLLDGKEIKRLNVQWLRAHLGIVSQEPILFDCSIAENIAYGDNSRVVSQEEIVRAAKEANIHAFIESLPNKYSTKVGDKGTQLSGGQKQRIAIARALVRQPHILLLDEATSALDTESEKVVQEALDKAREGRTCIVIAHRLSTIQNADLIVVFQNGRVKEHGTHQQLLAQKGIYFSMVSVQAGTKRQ

CCOP(=S)(OCC)Oc1nc(Cl)c(Cl)cc1Cl [CHLORPYRIFOS]
Activity [1]: substrate [+]; also recorded: is not a substrate [-] | Activity [2]: inducer [+] | Activity [3]: inducer [+] | Activity [4]: inducer [+] | Activity [5]: inducer [+] | Activity [6]: inducer [+]
